Measured values as given in ChEMBL document CHEMBL5465560, “Selectivity Literature for EUbOPEN Chemogenomic Library” (2024).
One block for each compound: values may come before it.

What was measured:
[1] = biological target: cAMP-dependent protein kinase catalytic subunit alpha (Homo sapiens, UniProt P17612); conditions: at 10 µM
[2] = biological target: G protein-coupled receptor kinase 5 (Homo sapiens, UniProt P34947); assay: Selectivity interaction (Kinase panel (DSF assay)) EUB0001559a GRK5
[3] = biological target: T1, Dual specificity mitogen-activated protein kinase kinase 6 (Homo sapiens) (UniProt P52564); assay: Selectivity interaction (Kinase panel (DSF assay)) EUB0001559a MAP2K6
T1 sequence (whole entry): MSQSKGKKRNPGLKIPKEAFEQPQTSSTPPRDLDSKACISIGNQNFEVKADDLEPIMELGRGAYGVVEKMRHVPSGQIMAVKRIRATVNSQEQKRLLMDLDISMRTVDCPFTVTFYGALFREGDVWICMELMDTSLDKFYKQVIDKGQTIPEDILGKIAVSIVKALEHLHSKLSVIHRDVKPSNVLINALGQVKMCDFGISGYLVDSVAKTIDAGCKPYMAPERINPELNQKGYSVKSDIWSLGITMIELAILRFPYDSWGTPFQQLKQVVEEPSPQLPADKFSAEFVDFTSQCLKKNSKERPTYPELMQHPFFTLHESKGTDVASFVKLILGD

[4] = biological target: T2, Ephrin type-A receptor 8 (Homo sapiens) (UniProt P29322); assay: Selectivity interaction (KinomeScan (DiscoverX)) EUB0000655a EPHA8; conditions: at 10 µM
T2 sequence (whole entry): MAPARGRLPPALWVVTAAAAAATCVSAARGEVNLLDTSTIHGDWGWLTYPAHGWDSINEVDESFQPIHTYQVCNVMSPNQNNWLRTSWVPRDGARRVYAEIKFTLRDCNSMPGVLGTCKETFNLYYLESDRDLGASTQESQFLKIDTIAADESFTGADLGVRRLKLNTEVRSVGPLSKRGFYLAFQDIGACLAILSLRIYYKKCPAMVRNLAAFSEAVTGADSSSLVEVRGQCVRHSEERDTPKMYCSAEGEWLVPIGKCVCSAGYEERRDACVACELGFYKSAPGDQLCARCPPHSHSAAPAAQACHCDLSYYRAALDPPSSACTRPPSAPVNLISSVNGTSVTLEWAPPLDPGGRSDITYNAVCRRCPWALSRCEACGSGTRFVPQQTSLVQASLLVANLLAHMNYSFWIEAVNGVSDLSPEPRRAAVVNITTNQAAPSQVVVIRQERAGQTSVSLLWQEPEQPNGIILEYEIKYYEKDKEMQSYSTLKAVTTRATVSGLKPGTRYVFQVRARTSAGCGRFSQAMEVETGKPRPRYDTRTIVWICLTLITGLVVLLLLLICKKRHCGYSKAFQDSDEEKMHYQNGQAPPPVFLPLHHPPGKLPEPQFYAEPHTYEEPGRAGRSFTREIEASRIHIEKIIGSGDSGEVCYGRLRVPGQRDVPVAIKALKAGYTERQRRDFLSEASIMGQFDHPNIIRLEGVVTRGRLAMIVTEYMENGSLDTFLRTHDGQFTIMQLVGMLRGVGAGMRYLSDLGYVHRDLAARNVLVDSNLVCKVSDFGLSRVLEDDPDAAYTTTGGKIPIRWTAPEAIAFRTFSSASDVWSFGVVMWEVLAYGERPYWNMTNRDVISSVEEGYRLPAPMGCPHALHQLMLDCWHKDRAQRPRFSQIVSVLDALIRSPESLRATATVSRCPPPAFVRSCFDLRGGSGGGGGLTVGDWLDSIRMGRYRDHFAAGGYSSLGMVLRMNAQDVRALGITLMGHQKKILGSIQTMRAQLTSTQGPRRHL

[5] = biological target: T3, Serine/threonine-protein kinase Nek3 (Homo sapiens) (UniProt P51956); assay: Selectivity interaction (KinomeScan (DiscoverX)) EUB0000655a NEK3; conditions: at 10 µM
T3 sequence (whole entry): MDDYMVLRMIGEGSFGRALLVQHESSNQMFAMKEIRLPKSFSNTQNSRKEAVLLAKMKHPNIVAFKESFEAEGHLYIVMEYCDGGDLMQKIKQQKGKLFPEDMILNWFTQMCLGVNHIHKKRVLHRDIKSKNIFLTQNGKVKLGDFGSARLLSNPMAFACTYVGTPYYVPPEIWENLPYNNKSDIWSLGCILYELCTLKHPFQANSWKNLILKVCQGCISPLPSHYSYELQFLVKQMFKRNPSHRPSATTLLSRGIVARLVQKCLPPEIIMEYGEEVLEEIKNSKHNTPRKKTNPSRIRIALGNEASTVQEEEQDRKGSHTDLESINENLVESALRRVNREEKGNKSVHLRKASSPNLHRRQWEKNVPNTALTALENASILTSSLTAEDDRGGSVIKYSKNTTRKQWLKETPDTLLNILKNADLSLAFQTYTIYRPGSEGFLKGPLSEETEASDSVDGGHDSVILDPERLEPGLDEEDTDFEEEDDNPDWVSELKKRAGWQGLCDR

[6] = system: Tyrosine-protein kinase ABL1 (Homo sapiens), P00519 [Q252H]; assay: Selectivity interaction (KinomeScan (DiscoverX)) EUB0001079a ABL1; conditions: at 1 µM
[7] = biological target: T4, Tyrosine-protein kinase Tec (Homo sapiens) (UniProt P42680); assay: Selectivity interaction (KinomeScan (DiscoverX)) EUB0000607a TEC; conditions: at 10 µM
T4 sequence (whole entry): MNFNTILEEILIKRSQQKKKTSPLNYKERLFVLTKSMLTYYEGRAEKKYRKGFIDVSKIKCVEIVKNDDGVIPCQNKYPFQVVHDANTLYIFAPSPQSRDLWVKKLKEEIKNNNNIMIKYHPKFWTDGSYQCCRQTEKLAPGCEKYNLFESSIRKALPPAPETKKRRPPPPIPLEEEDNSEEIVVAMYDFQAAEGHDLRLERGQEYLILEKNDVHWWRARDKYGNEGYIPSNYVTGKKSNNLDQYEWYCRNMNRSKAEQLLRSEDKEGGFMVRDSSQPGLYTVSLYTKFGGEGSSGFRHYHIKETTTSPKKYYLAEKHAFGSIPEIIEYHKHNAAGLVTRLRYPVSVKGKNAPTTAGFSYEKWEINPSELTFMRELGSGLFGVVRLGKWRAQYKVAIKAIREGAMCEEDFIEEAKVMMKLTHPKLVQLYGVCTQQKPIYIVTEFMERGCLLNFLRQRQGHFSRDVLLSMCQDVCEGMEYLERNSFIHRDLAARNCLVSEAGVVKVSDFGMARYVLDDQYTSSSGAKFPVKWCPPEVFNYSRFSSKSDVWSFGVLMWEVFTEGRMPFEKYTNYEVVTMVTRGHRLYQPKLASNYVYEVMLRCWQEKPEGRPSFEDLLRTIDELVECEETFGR

[8] = biological target: MAP/microtubule affinity-regulating kinase 3 (Homo sapiens) (UniProt P27448); assay: Selectivity interaction (ActivX KiNativ screen (kinase selectivity in THP-1 cell lysates)) EUB0000639a MARK3; assay type: subcellular; conditions: lysate, at 5 µM
[9] = biological target: Cyclin-dependent kinase 7 (Homo sapiens, UniProt P50613); assay: Selectivity interaction (KinomeScan (DiscoverX)) EUB0000229b CDK7; conditions: at 10 µM
[10] = system: Epidermal growth factor receptor (Homo sapiens), P00533 [UNDEFINED MUTATION]; assay: Selectivity interaction (KinomeScan (DiscoverX)) EUB0000666a EGFR; conditions: at 10 µM
Sequence of Epidermal growth factor receptor (Homo sapiens), P00533 [UNDEFINED MUTATION] (P00533 whole entry, looked up, change not shown): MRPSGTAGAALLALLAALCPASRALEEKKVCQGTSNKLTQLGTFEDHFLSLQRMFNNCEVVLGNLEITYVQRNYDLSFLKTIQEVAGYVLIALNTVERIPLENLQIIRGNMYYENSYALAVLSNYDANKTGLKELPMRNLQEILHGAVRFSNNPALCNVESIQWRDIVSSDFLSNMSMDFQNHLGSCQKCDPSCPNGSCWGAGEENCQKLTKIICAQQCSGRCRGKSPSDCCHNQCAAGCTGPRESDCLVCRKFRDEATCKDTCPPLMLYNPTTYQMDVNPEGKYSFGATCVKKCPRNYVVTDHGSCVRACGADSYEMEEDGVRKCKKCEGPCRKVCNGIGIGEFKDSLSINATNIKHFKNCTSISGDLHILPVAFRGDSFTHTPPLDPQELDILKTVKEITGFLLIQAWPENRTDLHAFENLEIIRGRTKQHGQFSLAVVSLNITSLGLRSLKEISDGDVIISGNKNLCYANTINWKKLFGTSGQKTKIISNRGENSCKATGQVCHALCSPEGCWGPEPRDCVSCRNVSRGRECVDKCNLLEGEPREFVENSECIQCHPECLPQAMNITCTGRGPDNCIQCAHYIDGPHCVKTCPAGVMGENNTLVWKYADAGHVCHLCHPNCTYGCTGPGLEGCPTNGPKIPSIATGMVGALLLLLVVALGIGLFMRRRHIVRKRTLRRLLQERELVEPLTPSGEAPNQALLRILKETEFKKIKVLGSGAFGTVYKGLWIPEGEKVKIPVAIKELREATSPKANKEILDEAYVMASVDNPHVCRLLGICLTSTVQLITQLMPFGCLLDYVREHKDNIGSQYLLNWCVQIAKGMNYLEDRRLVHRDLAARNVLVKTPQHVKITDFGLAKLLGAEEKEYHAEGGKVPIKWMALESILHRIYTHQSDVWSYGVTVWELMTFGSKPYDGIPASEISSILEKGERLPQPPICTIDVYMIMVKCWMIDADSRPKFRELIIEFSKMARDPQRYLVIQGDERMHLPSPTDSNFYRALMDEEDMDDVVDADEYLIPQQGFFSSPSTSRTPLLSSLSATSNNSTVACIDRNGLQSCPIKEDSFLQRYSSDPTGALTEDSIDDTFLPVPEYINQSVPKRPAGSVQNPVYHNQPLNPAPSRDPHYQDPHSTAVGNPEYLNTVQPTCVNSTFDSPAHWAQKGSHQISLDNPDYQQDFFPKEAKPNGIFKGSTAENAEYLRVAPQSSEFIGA

Sequence of MAP/microtubule affinity-regulating kinase 3 (Homo sapiens) (P27448 whole entry, looked up): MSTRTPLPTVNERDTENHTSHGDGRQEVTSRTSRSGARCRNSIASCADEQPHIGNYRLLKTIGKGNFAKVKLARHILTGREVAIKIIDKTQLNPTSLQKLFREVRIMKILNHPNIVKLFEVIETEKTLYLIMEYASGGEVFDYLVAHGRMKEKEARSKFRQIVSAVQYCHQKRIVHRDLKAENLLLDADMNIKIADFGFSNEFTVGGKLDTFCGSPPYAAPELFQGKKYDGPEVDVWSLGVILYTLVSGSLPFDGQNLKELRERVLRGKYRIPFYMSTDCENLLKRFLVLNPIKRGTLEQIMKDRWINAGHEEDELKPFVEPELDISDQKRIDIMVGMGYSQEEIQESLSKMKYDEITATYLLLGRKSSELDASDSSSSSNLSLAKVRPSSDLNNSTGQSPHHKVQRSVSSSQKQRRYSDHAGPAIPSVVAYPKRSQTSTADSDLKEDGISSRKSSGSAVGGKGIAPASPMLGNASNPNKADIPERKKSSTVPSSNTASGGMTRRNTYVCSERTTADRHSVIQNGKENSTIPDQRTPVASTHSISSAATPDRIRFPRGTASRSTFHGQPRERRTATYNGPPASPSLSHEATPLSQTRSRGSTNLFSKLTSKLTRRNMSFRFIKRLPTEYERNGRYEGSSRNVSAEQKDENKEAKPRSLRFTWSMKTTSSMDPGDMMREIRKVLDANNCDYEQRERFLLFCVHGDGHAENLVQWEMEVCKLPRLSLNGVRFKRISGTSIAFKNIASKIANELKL
Sequence of Cyclin-dependent kinase 7 (P50613 whole entry): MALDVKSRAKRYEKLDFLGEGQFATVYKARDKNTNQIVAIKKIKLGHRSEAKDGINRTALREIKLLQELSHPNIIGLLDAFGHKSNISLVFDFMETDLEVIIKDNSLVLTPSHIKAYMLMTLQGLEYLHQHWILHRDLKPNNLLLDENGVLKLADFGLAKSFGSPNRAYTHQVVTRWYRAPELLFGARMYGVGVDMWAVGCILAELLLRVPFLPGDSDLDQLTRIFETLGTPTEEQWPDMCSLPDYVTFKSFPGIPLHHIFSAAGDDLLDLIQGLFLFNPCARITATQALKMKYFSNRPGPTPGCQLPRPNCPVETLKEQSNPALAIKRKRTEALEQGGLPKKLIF
Sequence of G protein-coupled receptor kinase 5 (P34947 whole entry, looked up): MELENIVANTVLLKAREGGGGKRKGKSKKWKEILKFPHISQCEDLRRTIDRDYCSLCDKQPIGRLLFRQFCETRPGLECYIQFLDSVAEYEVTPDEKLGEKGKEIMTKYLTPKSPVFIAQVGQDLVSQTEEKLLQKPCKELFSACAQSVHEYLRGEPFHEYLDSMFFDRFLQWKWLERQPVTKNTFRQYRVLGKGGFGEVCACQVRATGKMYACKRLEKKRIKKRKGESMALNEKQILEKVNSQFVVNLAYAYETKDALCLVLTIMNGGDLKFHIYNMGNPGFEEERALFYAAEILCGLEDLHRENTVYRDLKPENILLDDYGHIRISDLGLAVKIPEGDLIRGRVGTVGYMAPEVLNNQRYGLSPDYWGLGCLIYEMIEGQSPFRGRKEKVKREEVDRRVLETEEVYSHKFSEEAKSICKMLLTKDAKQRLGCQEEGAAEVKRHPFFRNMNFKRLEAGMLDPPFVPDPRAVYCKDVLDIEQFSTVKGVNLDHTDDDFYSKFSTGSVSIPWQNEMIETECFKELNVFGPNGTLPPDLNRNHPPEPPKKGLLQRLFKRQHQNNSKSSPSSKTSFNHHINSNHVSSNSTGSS

% of control [1]: 100%
SMILES: CCN(CC)CCCCNc1ncc2cc(-c3cc(OC)cc(OC)c3)c(NC(=O)NC(C)(C)C)nc2n1

dTM [2]: 0 K | dTM [3]: 0 K
SMILES: CN(C(=O)c1cnn2cccnc12)c1cc2c(cc1N1CCOCC1)C(=O)N(C[C@@H](F)C(C)(C)O)C2

SMILES: CN(C)CCOc1ccc(-c2nc(-c3ccncc3)c(-c3ccc4c(c3)CC/C4=N\O)[nH]2)cc1
% of control [4]: 100% | % of control [5]: 71%

SMILES: Nc1cnc(N2CCc3cc(S(=O)(=O)Nc4c(F)cc(Cl)cc4F)cc(N4CCCC4=O)c32)nc1 [TP-020n]
% of control [6]: 98%

SMILES: CNC(=O)Nc1ccc(-c2nc(N3CC4CCC(C3)O4)c3cnn(C4CCC5(CC4)OCCO5)c3n2)cc1
% of control [7]: 84%

% of inhibition [8]: 36.9%
SMILES: CC[C@@H]1[C@H](F)C(=O)N[C@@H]1COc1nccc2cc(C(N)=O)c(OC)cc12 [ZIMLOVISERTIB]

SMILES: COc1cc(N(C)c2ccnc3ccc(C(F)(F)F)cc23)cc(OC)c1OC
% binding [9]: 57%

SMILES: O=C(NOC[C@H](O)CO)c1ccc(F)c(F)c1Nc1ccc(I)cc1F
% of control [10]: 51%
